Measurements as given in PMC10981727, “Design, synthesis and bioactivity study on oxygen-heterocyclic-based pyran analogues as effective P-glycoprotein-mediated multidrug resistance in MCF-7/ADR cell” (Scientific Reports, 2024).
Where two headings read alike, the source gives them in different places.

How the values were obtained:
[1] = tested on: human diploid fibroblasts (WI-38); experiment: MTT viability assay, normal WI-38; assay type: cell-based; details: normal cell line, 24 h, mean ± standard error
Method: (§1) Using concentrations ranging from 0 to 100 μM against PC-3, SKOV-3, and HeLa cancerogenic cell lines, target compounds 4a–l were assessed for their anticancer activities[53] and compared with the commercially available Vinblastine and Doxorubicin. […] The compounds with the greatest cytotoxic activity against the cancerous cell lines PC-3, SKOV-3, and HeLa were 4a–c, 4g, and 4h. […] We selected the cytotoxic active compounds 4a–c, 4g, and 4h to be evaluated against MCF-7/ADR cancerogenic and HFL-1 and WI-38 non-cancerogenic cell lines (Figs. 7, 8 and Table 1).
(§2) The tumor cell lines (PC-3, SKOV-3, and HeLa), resistant cell strains (MCF-7/ADR) and the normal cell lines, (HFL-1, WI-38) were obtained from the American Type Culture Collection (ATCC, Rockville, MD, USA).
(§3) The tumor cell lines were suspended in medium at concentration 5 × 10^4 cells well^−1 in Corning® 96-well tissue culture plates and then incubated for 24 h. The tested compounds with concentrations ranging from 0 to 100 μM were then added into 96-well plates (six replicates) to achieve six different concentrations for each compound. Six vehicle controls with media or 0.5% DMSO were run for each 96 well plate as a control. After incubating for 24 h, the numbers of viable cells were determined by the MTT test[53]. Briefly, the media was removed from the 96 well plates and replaced with 100 μl of fresh culture RPMI 1640 medium without phenol red then 10 μl of the 12 mM MTT stock solution (5 mg of MTT in 1 ml of PBS) to each well including the untreated controls. The 96-well plates were then incubated at 37 °C and 5% CO2 for 4 h. An 85-μl aliquot of the media was removed from the wells, and 50 μl of DMSO was added to each well and mixed thoroughly with the pipette and incubated at 37 °C for 10 min. Then, the optical density was measured at 590 nm with the microplate reader (Sunrise, TECAN, Inc, USA) to determine the number of viable cells and the percentage of viability was calculated as […] where ODt is the mean optical density of wells treated with the tested sample and ODc is the mean optical density of untreated cells. The relation between surviving cells and drug concentration is plotted to get the survival curve of each tumor cell line after treatment with the specified compound. The 50% inhibitory concentration (IC50), the concentration required to cause toxic effects in 50% of intact cells, was estimated from graphic plots of the dose response curve for each concentration.

[2] = tested on: SKOV-3; experiment: MTT viability assay, SKOV-3; assay type: cell-based; details: for IC50: MTT, 24 h incubation, mean ± standard error; for times more potency than Doxorubicin, SKOV-3 / times more potency than Vinblastine, SKOV-3: ratio of IC50 values
Method: as §1, §2, §3

[3] = tested on: PC-3; experiment: MTT viability assay, PC-3; assay type: cell-based; details: MTT, 24 h incubation, mean ± standard error
Method: as §1, §2, §3

[4] = tested on: MCF-7/ADR cells; experiment: Annexin V-FITC/PI apoptosis assay; assay type: cell-based; details: treated at IC50 value for 24 h; for necrosis (upper left quadrant, PI / Annexin V-FITC plot): control 1.56%; for total apoptosis percentage: equals sum of the three quadrants
Method: P-gp inhibits apoptosis by preventing the release of cytochrome c which is mediated by the intrinsic mitochondrial pathway. Also, blocking cell cycle progression, inducing apoptosis or the combined effect of both are one of the indicated mechanisms for the cytotoxic effect of the chemotherapeutic drugs. Therefore, further assessment of the pivotal relationship between the newly synthesized MCF-7/ADR anticancer compounds and apoptosis was measured by the means of the Annexin V/PI double staining flow cytometric assay.
Apoptosis assay was performed with an Annexin V-FITC/PI double staining apoptosis detection kit (K101, Biovison) using a flow cytometer. […] Cells were harvested by the trypsinization, washed twice with 4 °C PBS, and re-suspended in the binding buffer. Subsequently, the Annexin V-FITC and Propidium iodide (PI) solutions were added to stain the cells before the analysis by the flow cytometry, where a minimum of 10,000 cells per sample were acquired. The Annexin V-FITC binding (FL1) and PI (FL2) were analyzed, using the Cell Quest Pro software (BD Biosciences).

[5] = target: T1, P-gp (Homo sapiens, UniProt P08183); experiment: in vitro; details: MCF-7/ADR cells (cell lysate)
Method: (§4) The content of P-gp in the MCF-7/ADR cell lysates after incubation with varying conc. […] Absorption was recorded at 450 nm with a Spectramax Gemini fluorescence microplate reader (Molecular Devices, Sunnyvale, CA, USA)[78].

[6] = tested on: MCF-7/ADR cells; experiment: Cell cycle assay (propidium iodide flow cytometry); assay type: cell-based; details: treated at IC50 value for 24 h; for percentage of MCF-7/ADR cells in S phase (%DIP S): untreated control 29.61%
Method: The most powerful recently synthesized substances 4a–c on regulating cell cycle progression of MCF-7/ADR cells was analyzed by the flow cytometry, exploiting the FACS Calibers (Becton Dickinson). […] Cell cycle progression results of compounds 4a and 4b show cell cycle arrest at S phase with 41.17% and 34.62% respectively compared to 29.61% of the negative untreated control. […] Cell cycle arrest and distribution were done using Propidium Iodide Flow Cytometry Kit (ab139418, Abcam) as previously described. […] The DNA content in each cell nucleus was determined by a FACS Calibur flow cytometer (BD Biosciences, Franklin Lakes, NJ, USA).

[7] = tested on: human fetal lung (HFL-1); experiment: MTT viability assay, normal HFL-1; assay type: cell-based; details: HFL1, normal cell line, 24 h, mean ± standard error
Method: as §1, §2, §3

[8] = tested on: MCF-7/ADR; experiment: MTT viability assay, resistant MCF-7/ADR; assay type: cell-based; details: MTT, 24 h exposure, mean ± standard error
Method: as §1, §2, §3

[9] = tested on: HeLa; experiment: MTT viability assay, HeLa; assay type: cell-based; details: 24 h incubation, mean ± standard error
Method: as §1, §2, §3

[10] = target: T1, P-gp; experiment: cell-based
Method: Absorbance at 450 nm of each well was measured using Spectramax Gemini fluorescence microplate reader (Molecular Devices, Sunnyvale, CA, USA). The total content of Rhodamine in each sample was determined by comparison with a Rhodamine standard curve.

[11] = target: T1, P-gp
Method: as §4

T1 sequence (P08183 whole entry): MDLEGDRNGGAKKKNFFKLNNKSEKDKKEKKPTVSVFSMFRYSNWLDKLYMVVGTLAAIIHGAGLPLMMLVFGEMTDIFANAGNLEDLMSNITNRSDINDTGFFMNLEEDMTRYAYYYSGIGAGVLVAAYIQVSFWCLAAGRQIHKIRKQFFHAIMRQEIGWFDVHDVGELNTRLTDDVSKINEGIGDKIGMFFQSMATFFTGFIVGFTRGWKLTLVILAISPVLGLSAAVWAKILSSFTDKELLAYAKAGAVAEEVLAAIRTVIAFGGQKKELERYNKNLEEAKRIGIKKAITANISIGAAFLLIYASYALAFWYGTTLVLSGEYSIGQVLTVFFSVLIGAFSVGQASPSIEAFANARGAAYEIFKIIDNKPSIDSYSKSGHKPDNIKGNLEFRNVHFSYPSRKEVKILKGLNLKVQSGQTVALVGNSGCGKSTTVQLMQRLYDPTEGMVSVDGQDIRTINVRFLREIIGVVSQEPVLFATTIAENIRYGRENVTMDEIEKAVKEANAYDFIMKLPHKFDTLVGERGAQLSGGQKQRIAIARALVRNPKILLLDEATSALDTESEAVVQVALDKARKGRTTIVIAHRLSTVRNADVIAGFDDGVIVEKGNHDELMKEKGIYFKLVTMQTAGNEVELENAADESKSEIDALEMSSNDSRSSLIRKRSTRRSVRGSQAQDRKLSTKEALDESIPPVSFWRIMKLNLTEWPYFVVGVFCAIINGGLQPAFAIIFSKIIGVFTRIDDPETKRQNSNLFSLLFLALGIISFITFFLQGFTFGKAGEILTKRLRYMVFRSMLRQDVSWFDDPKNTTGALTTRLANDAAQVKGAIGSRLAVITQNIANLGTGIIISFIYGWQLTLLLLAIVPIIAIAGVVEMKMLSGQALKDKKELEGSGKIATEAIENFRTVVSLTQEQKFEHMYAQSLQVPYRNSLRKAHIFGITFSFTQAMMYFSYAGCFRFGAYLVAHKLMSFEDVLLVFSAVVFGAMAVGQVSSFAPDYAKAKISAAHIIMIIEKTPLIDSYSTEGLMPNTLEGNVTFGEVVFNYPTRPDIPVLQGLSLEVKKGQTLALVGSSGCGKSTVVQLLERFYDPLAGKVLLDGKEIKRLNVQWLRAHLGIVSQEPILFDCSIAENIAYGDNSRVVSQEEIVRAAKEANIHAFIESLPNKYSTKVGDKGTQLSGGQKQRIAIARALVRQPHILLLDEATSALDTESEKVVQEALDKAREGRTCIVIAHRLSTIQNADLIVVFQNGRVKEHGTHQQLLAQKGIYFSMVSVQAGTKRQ

Q: Which results are given for `N#CC1=C(N)Oc2ccc3ccc(O)cc3c2C1c1ccc(F)cc1` (centres unmarked) [4a, 3-Amino-1-(4-fluorophenyl)-9-hydroxy-1H-benzo[f]chromene-2-carbonitrile]?
A: IC50 [1]: 83.7 ± 1.1 µM; IC50 ([2]; Homo sapiens, SK-OV-3): 0.6 ± 0.2 µM; times more potency than Doxorubicin, SKOV-3 [2]: 1.8 times; times more potency than Vinblastine, SKOV-3 [2]: 5.3 times; IC50 ([3]; Homo sapiens, PC-3): 1.8 ± 0.3 µM; necrosis (upper left quadrant, PI / Annexin V-FITC plot) [4]: 16.42%; total apoptosis percentage [4]: 31.98%; IC50 at 48 h [5]: 34.7 µM; percentage of MCF-7/ADR cells in S phase (%DIP S) [6]: 41.17%; IC50 [7]: 69.8 ± 0.3 µM; IC50 ([8]; Homo sapiens, NCI/ADR-RES): 9.5 ± 0.3 µM; melting point: 272 °C; IC50 ([9]; Homo sapiens, HeLa): 1.5 ± 0.3 µM; IC50 [10]: 30.9 µM

Q: What does the source list for `N#CC1=C(N)Oc2ccc3ccc(O)cc3c2C1c1ccccc1Cl` (centres unmarked) [4b, 3-Amino-1-(2-chlorophenyl)-9-hydroxy-1H-benzo[f]chromene-2-carbonitrile]?
A: IC50 [1]: 61.1 ± 0.1 µM; IC50 ([2]; Homo sapiens, SK-OV-3): 0.7 ± 0.2 µM; times more potency than Doxorubicin, SKOV-3 [2]: 1.6 times; times more potency than Vinblastine, SKOV-3 [2]: 4.6 times; IC50 ([3]; Homo sapiens, PC-3): 3.3 ± 0.5 µM; total apoptosis percentage [4]: 43.51%; IC50 at 48 h [5]: 15.4 µM; percentage of MCF-7/ADR cells in S phase (%DIP S) [6]: 34.62%; IC50 [7]: 72 ± 0.2 µM; IC50 ([8]; Homo sapiens, NCI/ADR-RES): 5 ± 0.1 µM; melting point: 262 to 263 °C; IC50 ([9]; Homo sapiens, HeLa): 2.4 ± 0.2 µM; IC50 [10]: 13.3 µM

Q: With `N#CC1=C(N)Oc2ccc3ccc(O)cc3c2C1c1cccc(Cl)c1` (centres unmarked) [4c, 3-Amino-1-(3-chlorophenyl)-9-hydroxy-1H-benzo[f]chromene-2-carbonitrile] as the compound, how does the IC50 [1] read?
A: 58.2 ± 1.1 µM

Q: What about the IC50 ([2]; Homo sapiens, SK-OV-3) of the same compound?
A: 0.8 ± 0.1 µM

Q: And the “times more potency than Doxorubicin, SKOV-3” value [2]?
A: 1.4 times

Q: And the “times more potency than Vinblastine, SKOV-3” value [2]?
A: 4 times

Q: What about the IC50 ([3]; Homo sapiens, PC-3) of the same compound?
A: 2.3 ± 2.2 µM

Q: And the total apoptosis percentage [4]?
A: 36.17%

Q: And the IC50 at 48 h [5]?
A: 27.3 µM

Q: And the “percentage of MCF-7/ADR cells in G2/M phase (%DIP G2/M)” value ([6]; untreated control 15.01%)?
A: 29.54%

Q: What about the IC50 [7] of the same compound?
A: 56.5 ± 1.2 µM

Q: What about the IC50 ([8]; Homo sapiens, NCI/ADR-RES) of the same compound?
A: 10.7 ± 0.3 µM

Q: What about the melting point of the same compound?
A: 260 to 261 °C

Q: What about the IC50 ([9]; Homo sapiens, HeLa) of the same compound?
A: 2.1 ± 0.2 µM

Q: What about the IC50 [10] of the same compound?
A: 21.5 µM

Q: Which IC50 [2] does the source give for Doxorubicin [reference compound] here?
A: 1.1 ± 0.2 µM

Q: What about the IC50 [3] of the same compound?
A: 1.3 ± 0.3 µM

Q: What about the “necrosis (upper left quadrant, PI / Annexin V-FITC plot)” value [4] of the same compound?
A: 3.33%

Q: And the total apoptosis percentage [4]?
A: 29.59%

Q: What about the IC50 [8] of the same compound?
A: 18.6 ± 0.2 µM

Q: And the IC50 [9]?
A: 1.5 ± 0.3 µM

Q: What about the IC50 [11] of the same compound?
A: 50.9 µM
